Measured values taken from patent EP0248972A2, “Ammoniummonofluorophosphates, process for their preparation and their use” (Benckiser-Knapsack GmbH, priority 1986, dated 1987).

Assay: Behaviour with water (emulsion formation)
Type: physicochemical
Conditions: mit Wasser bei 20 C

For `CCCCCCCC/C=C\CCCCCCCCNCCCN` [N-Oleyl-1,3-diammoniumpropanmonofluorophosphat], the “Verhalten mit Wasser” value was “stabile Emulsion”.
